Experimental data published in patent publication US11904020B2, “Bicyclic peptide ligands specific for TREM2” (Bicycle Tx Limited, priority 2021, dated 2024).
Where two headings read alike, the source gives them in different places. *1 amine or outer side, *2 acyl side, *3 side chain or, on linkers, in order; H or OH if unused. Where a SMILES comes first, the peptide text is derived from it. Bridges are numbered along the chain shown (N, C = ends). [ ]: non-standard residue; d: D form. TATA = O=C(CC[*:1])N1CN(C(=O)CC[*:2])CN(C(=O)CC[*:3])C1; Phe(4-Me) = Cc1ccc(C[C@H](N)C(=O)O)cc1; 1Nal = N[C@@H](Cc1cccc2ccccc12)C(=O)O

Columns and labels:
TREM2 receptor = molecular target: T1, TREM2 receptor (Homo sapiens, UniProt Q9NZC2); assay: pSYK Homogenous Time Resolved Fluorescence (HTRF) assay in iPSC macrophages; format: cell-based
T1 construct: Both parental (TREM2 expressing) and isogenic TREM2 KO iPSC macrophages were plated; endogenous in cells; host or cells: human iPSC-derived macrophages (parental, TREM2 expressing)
T1 sequence (Q9NZC2 19-230): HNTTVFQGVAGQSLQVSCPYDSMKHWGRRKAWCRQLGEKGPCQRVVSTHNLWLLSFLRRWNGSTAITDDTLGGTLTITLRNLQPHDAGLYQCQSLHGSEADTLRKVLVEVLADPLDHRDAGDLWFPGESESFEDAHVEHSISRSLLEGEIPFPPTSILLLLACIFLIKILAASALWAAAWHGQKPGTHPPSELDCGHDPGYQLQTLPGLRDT
Method: Quantitative assessment of total and phospho (Tyr 525/526) SYK was performed on iPSC macrophages using CisBio total and phospho-SYK HTRF kits (catalogue numbers 64SYKTPGG and 64SYKY525-PEG respectively). Human iPSC macrophage precursors derived from embryoid bodies were plated in 96 well plates (Perkin Elmer Cell Carrier ultra, black walled plates, #6055800) at a density of 40 k cells per well in 100 μl macrophage media (XVIVO15 (Lonza, #BE04-418F), 1% Penicillin-Streptomycin (Gibco, #15140-122), 1% GlutaMAX™ Supplement (Gibco, #35050-038), 0.1% M-CSF (Invitrogen, #PHC9501)). Cells were grown for 7 days to induce full differentiation to iPSC macrophages. Both parental (TREM2 expressing) and isogenic TREM2 KO iPSC macrophages were plated to test for specificity of peptide binding. Following differentiation, cells were stimulated for 5 mins with either the control TREM2 activating antibody (R&D systems, #AF1828), a human IgG control (R&D systems, #AB-108-C), or a 10 point CRC of bicyclic peptide (serial 2 fold dilutions from a starting concentration of 100 μM). Following stimulation the media was removed, and cells were lysed in 50 μl lysis buffer (supplied with the kit) per well. Cells were incubated in LB3 for 30 mins with shaking at room temperature. Following lysis, 16 μl of sample was removed and added to a white 384 well plate (ProxiPlate-384 Plus (Perkin Elmer, #6008280)) and 4 μl of pre-mixed antibody solution was added to each well of the plate. The plate was incubated overnight at room temperature, and the following day, […] was measured at 665 nm and 620 nm using a Pherastar FSX. The same cell lysate was used to assess total and phosphorylated SYK, to enable the generation of a ratio of phosphorylated SYK in each sample.

[1] = molecular target: TREM2 extracellular domain (ECD) (residues 19-131, C-terminally biotinylated, deglycosylated or glycosylated) (Homo sapiens, UniProt Q9NZC2); assay: biochemical
Method: Bio-layer interferometry was performed on an Octet RED384® system (Sartorius) at 25° C. in a buffer containing 50 mM HEPES (pH 7.5), 150 mM NaCl and 0.1% Tween. TREM2 extracellular domain (ECD) (residues 19-131, C-terminally biotinylated, deglycosylated or glycosylated) was loaded onto Superstreptavidin biosensors (SSA, 18-5070, Sartorius) at 0.0125 mg/ml for 300 s. Bicycle peptides (10 mM in DMSO) were dispensed into 384-Well Tilted-Bottom Plates (18-5076, Sartorius) using an Echo liquid handler giving a final DMSO concentration of 0.125% in all wells including control wells. Association of defined concentrations of bicyclic peptide (0-12.5 μM, 1:2 dilutions for 7 points) was recorded over 120 s followed by dissociation in buffer over 120 s. Reference wells containing no bicycle peptides and reference sensors loaded with an unrelated protein (His-tagged MLLT3a) were subjected to the same assay protocol and double reference subtraction was used for processing to account for non-specific binding. Traces were analysed using Octet Software (Version 11.0). Association and dissociation curves were globally fit and the response at equilibrium (Req) plotted against concentration to obtain steady-state KD values.

[2] = molecular target: TREM2 extracellular domain (ECD); assay: Bio-Layer Interferometry (BLI) direct binding assay, cyno
Method: Traces were analysed using Octet Software (Version 11.0).

[3] = human iPSC macrophages, 5 mins stimulation, phospho (Tyr 525/526) SYK, NB = no binding, read-out: pSYK
[4] = Human BLI (Kd; nM) (deglycosylated), Table 4A, deglycosylated human TREM2 ECD, steady-state KD, 25° C.

Q: Which results are given for C[C@H](N)C(=O)N[C@H]1CSCCC(=O)N2CN3CN(C2)C(=O)CCSC[C@H](NC(=O)[C@H](Cc2ccc(O)cc2)NC(=O)[C@H](CC(N)=O)NC(=O)[C@H]([C@@H](C)O)NC1=O)C(=O)N[C@@H](Cc1ccccc1)C(=O)N[C@@H](Cc1c[nH]c2ccccc12)C(=O)N1CCC[C@H]1C(=O)N[C@@H](Cc1ccccc1)C(=O)N[C@@H](CCC(N)=O)C(=O)N[C@@H](Cc1ccc(O)cc1)C(=O)N[C@H](C(=O)N[C@@H](C)C(N)=O)CSCCC3=O [BCY19779, A-(SEQ ID NO: 18)-A] (H-ACTNYCFWPFQYCA-NH2; linker 2-6-13 via TATA)?
A: EC50 (TREM2 receptor; [3]): 2500 nM; Kd [1, 4]: 920 nM

Q: Which results are given for C[C@H](N)C(=O)N[C@H]1CSCCC(=O)N2CN3CN(C2)C(=O)CCSC[C@H](NC(=O)[C@H](Cc2ccc(O)cc2)NC(=O)[C@H](CCC(=O)O)NC(=O)[C@H](CO)NC1=O)C(=O)N[C@@H](Cc1ccccc1)C(=O)N[C@@H](Cc1c[nH]c2ccccc12)C(=O)N1CCC[C@H]1C(=O)N[C@@H](Cc1ccccc1)C(=O)N[C@@H](Cc1ccc(O)cc1)C(=O)N[C@@H](Cc1c[nH]cn1)C(=O)N[C@H](C(=O)N[C@@H](C)C(N)=O)CSCCC3=O [BCY16054, A-(SEQ ID NO: 1)-A] (H-ACSEYCFWPFYHCA-NH2; linker 2-6-13 via TATA; N-terminus and C-terminus assumed)?
A: Kd ([2]; Table 4A): 3300 nM; EC50 (TREM2 receptor): 10700 nM; Kd [1, 4]: 700 nM; Kd ([1]; KD, binding to the human TREM2 extracellular domain in the BLI assay, FIGS. 1A to 1D): ~700 nM

Q: What does the source list for CC(=O)N[C@H]1CSCCC(=O)N2CN3CN(C2)C(=O)CCSC[C@H](NC(=O)[C@H](Cc2ccc(O)cc2)NC(=O)[C@H](CCC(=O)O)NC(=O)[C@H](CO)NC1=O)C(=O)N[C@@H](Cc1ccccc1)C(=O)N[C@@H](Cc1cccc2ccccc12)C(=O)N1CCC[C@H]1C(=O)N[C@@H](Cc1ccccc1)C(=O)N[C@@H](Cc1ccc(O)cc1)C(=O)N[C@@H](C)C(=O)N[C@H](C(N)=O)CSCCC3=O [BCY19294, Ac-(SEQ ID NO: 32)] (Ac-CSEYCF[1Nal]PFYAC-NH2; linker 1-5-12 via TATA)?
A: EC50 (TREM2 receptor; [3]): < 3400 nM; Kd [1, 4]: 1500 nM

Q: For CC(=O)N[C@H]1CSCCC(=O)N2CN3CN(C2)C(=O)CCSC[C@H](NC(=O)[C@H](Cc2ccc(O)cc2)NC(=O)[C@H](CCC(=O)O)NC(=O)[C@H](CO)NC1=O)C(=O)N[C@@H](Cc1ccccc1)C(=O)N[C@@H](Cc1c[nH]c2ccccc12)C(=O)N1CCC[C@H]1C(=O)N[C@@H](Cc1ccc(C)cc1)C(=O)N[C@@H](Cc1ccc(O)cc1)C(=O)N[C@@H](C)C(=O)N[C@H](C(N)=O)CSCCC3=O [BCY19299, Ac-(SEQ ID NO: 36)] (Ac-CSEYCFWP[Phe(4-Me)]YAC-NH2; linker 1-5-12 via TATA; C-terminus assumed), which EC50 (TREM2 receptor; [3]) is on record?
A: > 10000 nM

Q: What about the Kd [1, 4] of the same compound?
A: 18000 nM

Q: For CC(=O)N[C@H]1CSCCC(=O)N2CN3CN(C2)C(=O)CCSC[C@H](NC(=O)[C@H](Cc2ccc(O)cc2)NC(=O)[C@H](CCC(=O)O)NC(=O)[C@H](CO)NC1=O)C(=O)N[C@@H](Cc1ccccc1)C(=O)N[C@@H](Cc1c[nH]c2ccccc12)C(=O)N1CCC[C@H]1C(=O)N[C@@H](Cc1cccc2ccccc12)C(=O)N[C@@H](Cc1ccc(O)cc1)C(=O)N[C@@H](C)C(=O)N[C@H](C(N)=O)CSCCC3=O [BCY20722, Ac-(SEQ ID NO: 46)] (Ac-CSEYCFWP[1Nal]YAC-NH2; linker 1-5-12 via TATA), which Kd ([2]; Table 4B) is on record?
A: 3600 nM
